Experimental data published in patent publication US8940310B2, “Methods of treatment using TLR7 and/or TLR9 inhibitors” (Dynavax Technologies Corporation, priority 2010, dated 2015).
Marks after values point to notes of the source that are not given here. [I] = hypoxanthine (inosine)

Tests used:
[1] = High dosages of IRPs in mice (weight, histology); assay type: in vivo, BALB/c mice; settings: for Liver: Liver changes, number of animals / Liver: Mixed cell infiltration, number of animals / Liver: No significan changes, number of animals / Right Kidney: No significant changes, number of animals / Right Kidney: Tubular basophilia, number of animals / Right Kidney: Tubular changes, number of animals: 6 animals; for Heart: No significant changes, number of animals: tissue missing in two animals
Procedure, shortened: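 BALB/c mice (n=5 per group) received IRPs or saline subcutaneously at 4, 20, 50 or 100 mg/kg on days 1, 4, 7 and 10. Body weight tracked over the study; at termination organ weights, tissue oligonucleotide levels and liver, kidney and heart histology were assessed.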

[2] = High dosages of IRPs in rats (weight, deaths, histology); assay type: in vivo, Sprague Dawley rats; settings: for Heart: Cell Vacuolation, number of animals / Heart: Hemorrhage, number of animals / Heart: Mononuclear Cell Infiltration, number of animals / Heart: Necrosis, number of animals / Heart: No significant changes, number of animals / Liver: Liver changes, number of animals / Liver: Mixed cell infiltration, number of animals / Liver: Necrosis, number of animals / Liver: No significant changes, number of animals / Liver: Vacuolation, number of animals / Right Kidney: Hydronephrosis, number of animals / Right Kidney: Mineralization, number of animals / Right Kidney: Necrosis, number of animals / Right Kidney: No significant changes, number of animals / Right Kidney: Tubular basophilia, number of animals / Right Kidney: Tubular changes, number of animals: 6 animals
[3] = system: human B-cells; experiment: Human B-cells cultured in the presence of IRPs, IL-6
[4] = Monomer and tetramer formation of IRPs, size-exclusion HPLC; assay type: physicochemical; settings: 100 mg/mL in PBS and 0.5M KCl, room temperature, five weeks
Experimental: Solutions were prepared of the by mixing 100 mg/mL of the IRP sequences in PBS and 0.5M KCl and storing at room temperature for three to five weeks. The solutions were subsequently analyzed by size-exclusion HPLC.

[5] = 50 mg/kg, 0 = no change to 4 = severe
[6] = 100 mg/kg, 0 = no change to 4 = severe
[7] = rat, 10 mg/kg, 0 = no change to 4 = severe
[8] = rat, 90 mg/kg, 0 = no change to 4 = severe

Substance: 5′-TGC TCC TGG AGI GGT TGT-3′ (DNA TGCTCCTGGAGNGGTTGT; DNA, [I] at 12, backbone and methylation of C not given here) [SEQ ID NO:73]
- Heart: Chronic inflammation, number of animals ([1]; 50 mg/kg): 0
- Heart: Mineralization, number of animals ([1]; 50 mg/kg): 2
- Heart: Mineralization, mean severity score [1, 5]: 3.0
- Liver: Liver changes, mean severity score [1, 5]: 1.0
- Liver: Mixed cell infiltration, mean severity score [1, 5]: 1.0
- Liver: Liver changes, number of animals ([1]; 50 mg/kg): 1
- Liver: Mixed cell infiltration, number of animals ([1]; 50 mg/kg): 2
- Liver: No significan changes, number of animals ([1]; 50 mg/kg): 3
- Right Kidney: No significant changes, number of animals ([1]; 50 mg/kg): 6
- Right Kidney: Tubular basophilia, number of animals ([1]; 50 mg/kg): 0
- Right Kidney: Tubular changes, number of animals ([1]; 50 mg/kg): 0
- Heart: No significant changes, number of animals ([1]; 50 mg/kg): 2**
- Heart: Chronic inflammation, number of animals ([1]; 100 mg/kg): 1
- Heart: Mineralization, number of animals ([1]; 100 mg/kg): 1
- Heart: Chronic inflammation, mean severity score [1, 6]: 2.0
- Heart: Mineralization, mean severity score [1, 6]: 3.0
- Liver: Liver changes, mean severity score [1, 6]: 1.0
- Liver: Mixed cell infiltration, mean severity score [1, 6]: 1.0
- Right Kidney: Tubular changes, mean severity score [1, 6]: 1.0
- Liver: Liver changes, number of animals ([1]; 100 mg/kg): 5
- Liver: Mixed cell infiltration, number of animals ([1]; 100 mg/kg): 1
- Liver: No significan changes, number of animals ([1]; 100 mg/kg): 1
- Right Kidney: No significant changes, number of animals ([1]; 100 mg/kg): 0
- Right Kidney: Tubular basophilia, number of animals ([1]; 100 mg/kg): 0
- Right Kidney: Tubular changes, number of animals ([1]; 100 mg/kg): 6
- Heart: No significant changes, number of animals ([1]; 100 mg/kg): 2**
- toxicity profile ([2]; rat histology): favorable toxicity profiles
- Heart: Cell Vacuolation, number of animals ([2]; rat, 10 mg/kg): 0
- Heart: Hemorrhage, number of animals ([2]; rat, 10 mg/kg): 0
- Heart: Mononuclear Cell Infiltration, number of animals ([2]; rat, 10 mg/kg): 0
- Heart: Necrosis, number of animals ([2]; rat, 10 mg/kg): 0
- Heart: No significant changes, number of animals ([2]; rat, 10 mg/kg): 6
- Liver: Liver changes, number of animals ([2]; rat, 10 mg/kg): 0
- Liver: Mixed cell infiltration, number of animals ([2]; rat, 10 mg/kg): 6
- Liver: Necrosis, number of animals ([2]; rat, 10 mg/kg): 0
- Liver: No significant changes, number of animals ([2]; rat, 10 mg/kg): 0
- Liver: Vacuolation, number of animals ([2]; rat, 10 mg/kg): 0
- Right Kidney: Hydronephrosis, number of animals ([2]; rat, 10 mg/kg): 1
- Right Kidney: Mineralization, number of animals ([2]; rat, 10 mg/kg): 1
- Right Kidney: Necrosis, number of animals ([2]; rat, 10 mg/kg): 0
- Right Kidney: No significant changes, number of animals ([2]; rat, 10 mg/kg): 0
- Right Kidney: Tubular basophilia, number of animals ([2]; rat, 10 mg/kg): 0
- Right Kidney: Tubular changes, number of animals ([2]; rat, 10 mg/kg): 6
- Liver: Mixed cell infiltration, mean severity score [2, 7]: 1.8
- Right Kidney: Hydronephrosis, mean severity score [2, 7]: 2.0
- Right Kidney: Mineralization, mean severity score [2, 7]: 1.0
- Right Kidney: Tubular changes, mean severity score [2, 7]: 1.3
- Heart: Cell Vacuolation, number of animals ([2]; rat, 90 mg/kg): 0
- Heart: Hemorrhage, number of animals ([2]; rat, 90 mg/kg): 0
- Heart: Mononuclear Cell Infiltration, number of animals ([2]; rat, 90 mg/kg): 0
- Heart: Necrosis, number of animals ([2]; rat, 90 mg/kg): 0
- Heart: No significant changes, number of animals ([2]; rat, 90 mg/kg): 6
- Liver: Liver changes, number of animals ([2]; rat, 90 mg/kg): 6
- Liver: Mixed cell infiltration, number of animals ([2]; rat, 90 mg/kg): 2
- Liver: Necrosis, number of animals ([2]; rat, 90 mg/kg): 0
- Liver: No significant changes, number of animals ([2]; rat, 90 mg/kg): 0
- Liver: Vacuolation, number of animals ([2]; rat, 90 mg/kg): 0
- Right Kidney: Hydronephrosis, number of animals ([2]; rat, 90 mg/kg): 0
- Right Kidney: Mineralization, number of animals ([2]; rat, 90 mg/kg): 2
- Right Kidney: Necrosis, number of animals ([2]; rat, 90 mg/kg): 0
- Right Kidney: No significant changes, number of animals ([2]; rat, 90 mg/kg): 0
- Right Kidney: Tubular basophilia, number of animals ([2]; rat, 90 mg/kg): 0
- Right Kidney: Tubular changes, number of animals ([2]; rat, 90 mg/kg): 6
- Liver: Liver changes, mean severity score [2, 8]: 1.9
- Liver: Mixed cell infiltration, mean severity score [2, 8]: 2.0
- Right Kidney: Mineralization, mean severity score [2, 8]: 1.5
- Right Kidney: Tubular changes, mean severity score [2, 8]: 2.0
- Normalized IL-6 Response (Percentage of Positive Control) ([3]; Experiment # 1, Max Conc 4.0 uM): 11%
- Normalized IL-6 Response (Percentage of Positive Control) ([3]; Experiment # 2, Max Conc 4.0 uM): 13%
- Normalized IL-6 Response (Percentage of Positive Control) ([3]; Experiment # 3, Max Conc 4.0 uM): 6%
- Normalized IL-6 Response (Percentage of Positive Control) ([3]; Experiment # 9, Max Conc 2.0 uM): 11%
- B-cell stimulatory activity ([3]; FIG. 1C, percent IL-6 from CpG-ISS): low B-cell stimulatory activity
- fraction in monomer form [4]: 100%
